Reference: BindingDB's records for patent US12084420 (Volastra Therapeutics, 2024)

Molecular target: T1, Kinesin-like protein KIF18A (Homo sapiens, UniProt Q8NI77)
T1 sequence (Q8NI77 whole entry): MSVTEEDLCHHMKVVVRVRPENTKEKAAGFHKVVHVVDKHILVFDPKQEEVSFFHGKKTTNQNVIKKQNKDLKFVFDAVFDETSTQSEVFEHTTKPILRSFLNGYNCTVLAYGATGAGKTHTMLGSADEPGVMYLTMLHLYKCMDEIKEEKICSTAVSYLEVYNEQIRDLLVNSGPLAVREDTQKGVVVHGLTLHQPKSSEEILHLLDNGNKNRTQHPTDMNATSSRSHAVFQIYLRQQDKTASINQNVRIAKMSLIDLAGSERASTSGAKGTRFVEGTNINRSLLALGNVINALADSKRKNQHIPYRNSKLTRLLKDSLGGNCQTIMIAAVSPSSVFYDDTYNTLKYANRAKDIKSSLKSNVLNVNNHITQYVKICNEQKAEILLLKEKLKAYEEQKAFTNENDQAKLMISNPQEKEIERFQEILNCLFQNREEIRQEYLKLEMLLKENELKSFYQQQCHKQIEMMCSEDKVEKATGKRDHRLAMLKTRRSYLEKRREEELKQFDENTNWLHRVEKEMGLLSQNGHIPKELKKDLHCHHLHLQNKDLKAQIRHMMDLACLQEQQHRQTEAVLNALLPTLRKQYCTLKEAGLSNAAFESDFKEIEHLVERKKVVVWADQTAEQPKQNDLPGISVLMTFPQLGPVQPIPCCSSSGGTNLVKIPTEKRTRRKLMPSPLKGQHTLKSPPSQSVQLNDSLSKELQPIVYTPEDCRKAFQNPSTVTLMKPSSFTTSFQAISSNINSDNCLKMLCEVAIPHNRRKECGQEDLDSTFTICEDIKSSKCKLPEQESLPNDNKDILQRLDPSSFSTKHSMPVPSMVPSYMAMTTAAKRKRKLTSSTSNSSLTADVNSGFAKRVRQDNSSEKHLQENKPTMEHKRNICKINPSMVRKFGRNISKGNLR
Assay: Inhibition of KIF18A Microtubule-Dependent ATPase Activity
Experimental: Table 9: Test compounds were plated in a 3× dilution scheme in a 384-well plate. […] After incubation at room temperature for 30 min, 2.5 μL of microtubule mix was added [0.2 mg/mL pre-formed microtubules, 2.0 mM ATP in assay buffer], the plate was centrifuged for 30 s and then incubated at 28° C. for 60 min. 5 μL of Promega ADP-Glo Max R1 was added, the plate was centrifuged for 30 s, and the mixture incubated for 4 h at room temperature. 10 μL of Promega ADP-Glo Max R2 was added, the plate centrifuged for 30 s, and incubated for 60 min at room temperature. Luminescence was measured with an Envision plate reader, and % Inhibition was calculated for each well as: ([max−min]−[test−min])/[max−min]. IC50 values were calculated from concentration vs. % Inhibition data via a four-parameter variable slope model.

IC50 [µM]	Compound
1	Cn1nc(S(=O)(=O)NC(C)(C)C)cc1C(=O)N1CC2(CCCCC2)c2cc(NS(C)(=O)=O)ccc21 [US12084420, Compound 59]
0.043	CC(C)(C)NS(=O)(=O)c1csc(C(=O)N2CC3(CCCCC3)c3cc(NS(C)(=O)=O)ccc32)c1 [US12084420, Compound 147]
0.016	CC(C)(CO)NS(=O)(=O)c1cccc(C(=O)N2CC3(CCC4(CC4)CC3)c3cc(NS(C)(=O)=O)ccc32)c1 [US12084420, Compound 220]
0.0087	CC(C)(C)NS(=O)(=O)c1cc(C(=O)N2CC3(CCCCC3)c3cc(NS(C)(=O)=O)ccc32)cs1 [US12084420, Compound 231]
0.012	C=C1CCC1NS(=O)(=O)c1cccc(C(=O)N2CC3(CCC4(CC4)CC3)c3cc(NS(C)(=O)=O)ccc32)c1 (configuration not stated) [US12084420, Compound 233]
0.021	CS(=O)(=O)Nc1ccc2c(c1)C1(CCC3(CC3)CC1)CN2C(=O)c1cccc(S(=O)(=O)N2CCC(C(F)F)C2)c1 (configuration not stated) [US12084420, Compound 247]
0.01	CS(=O)(=O)Nc1ccc2c(c1)C1(CCC3(CC3)CC1)CN2C(=O)c1cccc(S(=O)(=O)NC2CC3CC3C2)c1 (configuration not stated) [US12084420, Compound 254]
0.016	CCC(C)(C)NS(=O)(=O)c1cccc(C(=O)N2CC3(CCC4(CC4)CC3)c3cc(NS(C)(=O)=O)ccc32)c1 [US12084420, Compound 266]
0.93	CS(=O)(=O)Nc1ccc2c(c1)C1(CCC3(CC3)CC1)CN2C(=O)c1cccc(/C=N/N2CCCCC2)c1 [US12084420, Compound 318]
1.2	CC(C)(C)NS(=O)(=O)c1cc(C(=O)N2CC3(CCC4(CC4)CC3)c3cc(NS(C)(=O)=O)ccc32)co1 [US12084420, Compound 319]
0.013	CC(C)(C)NS(=O)(=O)c1cccc(C(=O)N2CC3(CCC4(CC4)CC3)c3cc(NS(=O)(=O)CCF)ccc32)c1 [US12084420, Compound 365]

Compound	IC50 [µM]
O=C(c1cccc(S(=O)(=O)N2CCC(F)(F)CC2)c1)N1CC2(CCCC2)c2cc(NS(=O)(=O)CCO)ccc21 [US12084420, Compound 27]	0.083
